Assays:
[1] = tested on: guinea pig ileum; assay: guinea pig ileum test (in vitro); conditions: relative to PGF2α (conventional value 1), limits in brackets
Method: (§1) In the Table the conventional value of 1 was given to the activity of PGF2α in both tests.
*In a 10 ml thermostatic bath held at 35° C., ilea of male guinea
pigs, under 0.5 g traction, were subjected to carbondioxide in a Tyrode
solution; the preparation was left for 30 minutes to stabilize before the
compounds were tested. The response was recorded using a isotonic frontal
lever, long enough to amplify the response 4.5 times.

[2] = tested on: oestrogenized rat uteri; assay: rat uterus test (in vitro); conditions: relative to PGF2α (conventional value 1), limits in brackets
Method: as §1
**In a 10 ml thermostatic bath held at 29° C., oestrogenized rat
uteri under 0.5 g traction were subjected to carbondioxide in a Dejalon
saline solution. The prepration was left to stabilize for 30 minutes
before the compounds were tested. Response was measured using a isotonic
frontal lever, long enough to amplify the response 4.5 times.

[3] = tested on: pregnant rat; assay: luteolytic activity in the pregnant rat; format: in vivo; conditions: pregnant rat at the 9th-10th day of pregnancy; relative to PGF2α (conventional value 1)
Source text: The action selectivity of the compounds of the invention on the miometrium and on the reproductive apparatus is also proven by the remarkable increase of the luteolytic activity in the pregnant rat at the 9th-10th day of pregnancy. In fact, if the conventional value 1 is given to the luteolytic activity of PGF2α, the value of 100 at least is to be given to the luteolytic activity of 13,14-dehydro-17-phenyl-20,19,18-trinor-PGF2α, and the value of 200 to the luteolytic activity of 13,14-dehydro-16-p-fluorophenoxy-20,19,18,17-tetranor-PGF2α.

[4] = molecular target: T1, 15-hydroxy-prostaglandin-dehydrogenase drawn from human placenta (Homo sapiens, UniProt P15428); assay: inhibition of 15-hydroxy-prostaglandin-dehydrogenase, in vitro; format: biochemical; conditions: enzyme from human placenta; inhibition partially competitive with respect to PGF2α
T1 construct: drawn from human placenta; from tissue; host or cells: human placenta
T1 sequence (P15428 1-266): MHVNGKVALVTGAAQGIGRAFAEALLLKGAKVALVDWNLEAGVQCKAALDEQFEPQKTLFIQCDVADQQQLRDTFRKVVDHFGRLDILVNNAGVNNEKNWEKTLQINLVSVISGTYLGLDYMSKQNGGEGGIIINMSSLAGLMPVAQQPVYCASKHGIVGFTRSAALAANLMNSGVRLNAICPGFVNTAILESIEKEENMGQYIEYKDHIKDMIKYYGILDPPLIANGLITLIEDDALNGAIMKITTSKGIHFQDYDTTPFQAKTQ
Source text: The compounds of formula (I) furthermore inhibit the use of natural prostaglandins as substrate by the same enzyme.

[5] = tested on: mares, cows, heifers and sowes; assay: synchronizing the estrum / haematic progesterone levels in farm animals; format: in vivo; conditions: for haematic levels of progesterone: after administration of 0.5-3 ml of the 0.5 mg/ml solution; for ability of synchronizing the estrum: solution in aqueous isotonic buffered (pH 7.5) medium, 0.5 mg/ml, mares, cows, heifers and sowes

SMILES	Guinea Pig Ileum activity, PGF2α = 1 [1]	Rat Uterus activity, PGF2α = 1 [2]	luteolytic activity, PGF2α = 1 [3]	Ki [4] [µM]	haematic levels of progesterone [5]	ability of synchronizing the estrum [5]
O=C(O)CCC/C=C\CC1C(O)CC(O)C1C#CC(O)COc1cccc(C(F)(F)F)c1 (stereo not drawn) [5c-9α,11α,15S-trihydroxy-20,19,18,17-tetranor-16-m-trifluoromethylphenoxy-prost-5-en-13-ynoic acid]	0.50 (0.05-5)	3.86 (2.96-5.03)	–	–	–	–
O=C(O)CCC/C=C\CC1C(O)CC(O)C1C#CC(O)COc1ccc(F)cc1 (stereo not drawn) [5c-9α,11α,15S-trihydroxy-20,19,18,17-tetranor-16-p-fluorophenoxy-prost-5-en-13-ynoic acid]	0.50 (0.05-5)	1.91 (1.34-2.73)	200	–	–	–
O=C(O)CCC/C=C\C[C@@H]1[C@@H](C#C[C@@H](O)CCc2ccccc2)[C@H](O)C[C@@H]1O [5c-9α,11α,15S-trihydroxy-20,19,18-trinor-17-phenyl-prost-5-en-13-ynoic acid]	0.6	22.74	≥ 100	130	–	–
CO[C@H](C#C[C@@H]1[C@@H](C/C=C\CCCC(=O)O)[C@@H](O)C[C@H]1O)CCc1ccccc1 [5c-9α,11α-dihydroxy-15S-methoxy-20,19,18-trinor-17-phenyl-prost-5-en-13-ynoic acid]	0.05	4.4	–	–	–	–
O=C([O-])CCC/C=C\CC1C(O)CC(O)C1C#CC(O)COc1ccc(F)cc1.[Na+] (stereo not drawn) [13,14-dehydro-16-p-fluorophenoxy-20,19,18,17-tetranor-PGF2α]	–	–	–	–	pronounced downfall	very good results
O=C([O-])CCC/C=C\CC1C(O)CC(O)C1C#CC(O)CCc1ccccc1.[Na+] (stereo not drawn) [13,14-dehydro-17-phenyl-20,19,18-trinor-PGF2α]	–	–	–	–	pronounced downfall	very good results
CCCCC[C@H](O)C#C[C@@H]1[C@@H](C/C=C\CCCC(=O)O)[C@@H](O)C[C@H]1O [13,14-dehydro-PGF2α, reference compound]	0.6	1.09	–	–	–	–
O=C(O)CCC/C=C\C[C@@H]1[C@@H](/C=C/[C@@H](O)CCc2ccccc2)[C@H](O)C[C@@H]1O [17-phenyl-20,19,18-trinor-PGF2α, 5c,13t-9α,11α,15S-trihydroxy-20,19,18-trinor-17-phenyl-prosta-5,13-dienoic acid, reference compound]	2.34	1.54	–	–	–	–
CCCCC[C@H](O)/C=C/[C@@H]1[C@@H](C/C=C\CCCC(=O)O)[C@@H](O)C[C@H]1O [PGF2α, reference compound]	1	1	1	–	–	–

Source: US4195183A, “ω-Nor-aromatic-13,14-dehydro-prostaglandins and process for their preparation” (Farmitalia Certo Erba S.p.A., priority 1976, dated 1980)
